Target: human PCSK9 (Homo sapiens, UniProt Q8NBP7)
Test: PCSK9 ligand binding TR-FRET assay (interference with binding of human PCSK9 to human LDLR)
Conditions: for Max % inhibition: PCSK9 FRET assay, efficacy (Amax), 100% = 1 uM unlabeled human PCSK9, 0% = DMSO; for IC50: TR-FRET, human PCSK9 Alexa Fluor 647 / human LDLR extracellular domain-Europium Kryptate, read-out: PCSK9 FRET Assay IC50
In short: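 Threefold compound dilutions were pre-incubated 30 min with PCSK9, after which 4 nM Europium Kryptate-tagged human LDLR ectodomain was added for a further 2 h.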

human PCSK9, sequence (Q8NBP7 153-692): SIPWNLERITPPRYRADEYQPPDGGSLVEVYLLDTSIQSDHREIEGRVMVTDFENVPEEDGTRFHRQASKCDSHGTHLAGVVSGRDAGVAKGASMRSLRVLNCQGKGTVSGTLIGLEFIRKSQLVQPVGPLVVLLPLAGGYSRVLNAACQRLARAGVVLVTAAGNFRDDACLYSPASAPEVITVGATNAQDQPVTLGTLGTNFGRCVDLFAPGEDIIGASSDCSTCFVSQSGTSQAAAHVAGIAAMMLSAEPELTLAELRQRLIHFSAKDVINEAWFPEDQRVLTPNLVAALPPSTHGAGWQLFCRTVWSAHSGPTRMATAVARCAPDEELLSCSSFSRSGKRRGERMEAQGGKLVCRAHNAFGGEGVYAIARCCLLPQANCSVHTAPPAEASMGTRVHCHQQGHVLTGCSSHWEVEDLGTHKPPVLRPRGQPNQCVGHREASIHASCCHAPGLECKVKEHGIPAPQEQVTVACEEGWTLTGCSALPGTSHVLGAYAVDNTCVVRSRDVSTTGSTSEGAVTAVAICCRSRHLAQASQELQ
human PCSK9, sequence (Q8NBP7 31-152 partner limits assumed): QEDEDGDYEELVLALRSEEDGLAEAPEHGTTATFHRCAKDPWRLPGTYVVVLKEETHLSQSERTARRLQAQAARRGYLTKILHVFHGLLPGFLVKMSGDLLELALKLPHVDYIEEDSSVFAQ

SMILES | Max % inhibition | IC50
COC[C@@H]1NC(=O)[C@H](C)N(Cc2ccc(Cl)cc2Oc2ccc(-c3cnc(CN4CCCC4)n3C)c(F)c2)C(=O)C[C@@H](Cc2ccccc2)C(=O)N(C)[C@@H](C)CNC(=O)C[C@H](Cc2ccc(Cl)cc2)N(C)C1=O [Compound 72, (2S,5S,8S,13S,16R)-16-benzyl-1-(4-chloro-2-(3-fluoro-4-(1-methyl-2-(pyrrolidin-1-ylmethyl)-1H-imidazol-5-yl)phenoxy)benzyl)-8-(4-chlorobenzyl)-5-(methoxymethyl)-2,7,13,14-tetramethyl-1,4,7,11,14-pentaazacyclooctadecane-3,6,10,15,18-pentaone] | 92.57% | 0.5 nM
COC[C@@H]1NC(=O)[C@@H](C)N(Cc2ccc(C(F)F)cc2Oc2ccc(-c3cnc(CN(C)C)n3C)cc2)C(=O)C[C@@H](Cc2ccccc2)C(=O)N(C)[C@@H](C)CNC(=O)C[C@H](Cc2ccc(Cl)cc2)N(C)C1=O [Compound 74, (2R,5S,8S,13S,16R)-16-benzyl-8-(4-chlorobenzyl)-1-(4-(difluoromethyl)-2-(4-(2-((dimethylamino)methyl)-1-methyl-1H-imidazol-5-yl)phenoxy)benzyl)-5-(methoxymethyl)-2,7,13,14-tetramethyl-1,4,7,11,14-pentaazacyclooctadecane-3,6,10,15,18-pentaone] | 104.33% | 46.5 nM
COC[C@@H]1NC(=O)[C@H](C)N(Cc2ccc(Cl)cc2Oc2ccc(-c3cnc(CN4CCC4)n3C)cc2)C(=O)C[C@@H](Cc2ccccc2)C(=O)N(C)[C@@H](C)CNC(=O)C[C@H](Cc2ccc(Cl)cc2)N(C)C1=O [Compound 76, (2S,5S,8S,13S,16R)-1-(2-(4-(2-(azetidin-1-ylmethyl)-1-methyl-1H-imidazol-5-yl)phenoxy)-4-chlorobenzyl)-16-benzyl-8-(4-chlorobenzyl)-5-(methoxymethyl)-2,7,13,14-tetramethyl-1,4,7,11,14-pentaazacyclooctadecane-3,6,10,15,18-pentaone] | 96.97% | 1 nM
COC[C@@H]1NC(=O)[C@H](C)N(Cc2ccc(Cl)cc2Oc2ccc(-c3cnc(CN(C)C)n3C)cc2)C(=O)C[C@@H](Cc2ccccc2)C(=O)N(C)[C@@H]2C[C@@H]2NC(=O)C[C@H](Cc2ccc(Cl)cc2)N(C)C1=O [Compound 77, (1S,5S,8S,11S,15R,18R)-15-benzyl-12-(4-chloro-2-(4-(2-((dimethylamino)methyl)-1-methyl-1H-imidazol-5-yl)phenoxy)benzyl)-5-(4-chlorobenzyl)-8-(methoxymethyl)-6,11,17-trimethyl-2,6,9,12,17-pentaazabicyclo[16.1.0]nonadecane-3,7,10,13,16-pentaone] | 104.08% | 9 nM
COC[C@@H]1NC(=O)[C@H](COC)N(Cc2ccc(Cl)cc2Oc2ccc(-c3cnc(CN(C)C)n3C)cc2)C(=O)C[C@@H](Cc2ccccc2)C(=O)N(C)[C@@H](C)CNC(=O)C[C@H](Cc2ccc(Cl)cc2)N(C)C1=O [Compound 78, (2S,5S,8S,13S,16R)-16-benzyl-1-(4-chloro-2-(4-(2-((dimethylamino)methyl)-1-methyl-1H-imidazol-5-yl)phenoxy)benzyl)-8-(4-chlorobenzyl)-2,5-bis(methoxymethyl)-7,13,14-trimethyl-1,4,7,11,14-pentaazacyclooctadecane-3,6,10,15,18-pentaone] | 97.49% | 94.6 nM
COC[C@@H]1NC(=O)[C@H](C)N(Cc2ccc(C(F)(F)F)cc2Oc2ccc(-c3cnc(CN4CCCC4)n3C)cc2)C(=O)C[C@@H](Cc2ccccc2)C(=O)N(C)[C@@H](C)CNC(=O)C[C@H](Cc2ccc(Cl)cc2)N(C)C1=O [Compound 80, (2S,5S,8S,13S,16R)-16-benzyl-8-(4-chlorobenzyl)-5-(methoxymethyl)-2,7,13,14-tetramethyl-1-(2-(4-(1-methyl-2-(pyrrolidin-1-ylmethyl)-1H-imidazol-5-yl)phenoxy)-4-(trifluoromethyl)benzyl)-1,4,7,11,14-pentaazacyclooctadecane-3,6,10,15,18-pentaone] | 103.62% | 6.3 nM
CCc1ccc(CN2C(=O)C[C@@H](Cc3ccccc3)C(=O)N(C)[C@H]3CCCC[C@@H]3NC(=O)C[C@H](Cc3ccc(Cl)cc3)N(C)C(=O)[C@H](COC)NC(=O)[C@@H]2C)c(Oc2ccc(-c3cnc([C@@H](C)N(C)C)n3C)cc2)c1 [Compound 85, (4S,7S,10S,14R,16aS,20aS)-14-benzyl-4-(4-chlorobenzyl)-11-(2-(4-(2-((R)-1-(dimethylamino)ethyl)-1-methyl-1H-imidazol-5-yl)phenoxy)-4-ethylbenzyl)-7-(methoxymethyl)-5,10,16-trimethylhexadecahydrobenzo[l][1,4,7,11,14]pentaazacyclooctadecine-2,6,9,12,15(3H)-pentaone] | 114.68% | 0.9 nM
CNc1ncc(-c2ccc(Oc3cc(Cl)ccc3CN3C(=O)C[C@@H](Cc4ccccc4)C(=O)N(C)[C@@H](C)CNC(=O)C[C@H](Cc4ccc(Cl)cc4)N(C)C(=O)[C@H](COC)NC(=O)[C@@H]3C)cc2)cn1 [Compound 86, (2S,5S,8S,13S,16R)-16-benzyl-1-(4-chloro-2-(4-(2-(methylamino)pyrimidin-5-yl)phenoxy)benzyl)-8-(4-chlorobenzyl)-5-(methoxymethyl)-2,7,13,14-tetramethyl-1,4,7,11,14-pentaazacyclooctadecane-3,6,10,15,18-pentaone] | 56.62% | 20.5 nM

Second part, the compound after the results:

Max % inhibition | IC50 | SMILES
103.69% | 4 nM | CCC[C@@H](O)[C@@H]1CC(=O)N(Cc2ccc(Cl)cc2Oc2ccc(-c3cnc(CN(C)C)n3C)cc2)[C@@H](C)C(=O)N[C@@H](COC)C(=O)N(C)[C@@H](Cc2ccc(Cl)cc2)CC(=O)NC[C@H](C)N(C)C1=O [Compound 75, (2S,5S,8S,13S,16S)-1-(4-chloro-2-(4-(2-((dimethylamino)methyl)-1-methyl-1H-imidazol-5-yl)phenoxy)benzyl)-8-(4-chlorobenzyl)-16-((R)-1-hydroxybutyl)-5-(methoxymethyl)-2,7,13,14-tetramethyl-1,4,7,11,14-pentaazacyclooctadecane-3,6,10,15,18-pentaone]
103.04% | 1.8 nM | C[C@H]1C(=O)N[C@@H](COC(F)F)C(=O)N(C)[C@@H](Cc2ccc(Cl)cc2)CC(=O)N[C@H]2CCCC[C@@H]2N(C)C(=O)[C@H](Cc2ccccc2)CC(=O)N1Cc1ccc(Cl)cc1Oc1ccc(-c2cnc(CN(C)C)n2C)cc1 [Compound 79, (4S,7S,10S,14R,16aS,20aS)-14-benzyl-11-(4-chloro-2-(4-(2-((dimethylamino)methyl)-1-methyl-1H-imidazol-5-yl)phenoxy)benzyl)-4-(4-chlorobenzyl)-7-((difluoromethoxy)methyl)-5,10,16-trimethylhexadecahydrobenzo[l][1,4,7,11,14]pentaazacyclooctadecine-2,6,9,12,15(3H)-pentaone]
87.86% | 34.5 nM | CCC/C=C/c1ncc(-c2ccc(Oc3cc(Cl)ccc3CN3C(=O)C[C@@H](Cc4ccccc4)C(=O)N(C)[C@@H](C)CNC(=O)C[C@H](Cc4ccc(Cl)cc4)N(C)C(=O)[C@H](COC)NC(=O)[C@@H]3C)cc2)n1C [Compound 81, (2S,5S,8S,13S,16R)-16-benzyl-1-(4-chloro-2-(4-(1-methyl-2-((E)-pent-1-en-1-yl)-1H-imidazol-5-yl)phenoxy)benzyl)-8-(4-chlorobenzyl)-5-(methoxymethyl)-2,7,13,14-tetramethyl-1,4,7,11,14-pentaazacyclooctadecane-3,6,10,15,18-pentaone]
99.99% | 1.3 nM | COC[C@@H]1NC(=O)[C@H](CC(=O)O)N(Cc2ccc(Cl)cc2Oc2ccc(-c3cnc(CN(C)C)n3C)cc2)C(=O)C[C@@H](Cc2ccccc2)C(=O)N(C)[C@@H](C)CNC(=O)C[C@H](Cc2ccc(Cl)cc2)N(C)C1=O [Compound 82, 2-((2S,5S,8S,13S,16R)-16-benzyl-1-(4-chloro-2-(4-(2-((dimethylamino)methyl)-1-methyl-1H-imidazol-5-yl)phenoxy)benzyl)-8-(4-chlorobenzyl)-5-(methoxymethyl)-7,13,14-trimethyl-3,6,10,15,18-pentaoxo-1,4,7,11,14-pentaazacyclooctadecan-2-yl)acetic acid]
99.18% | 1.7 nM | COC[C@@H]1NC(=O)[C@H](C)N(Cc2ccc(Cl)cc2Oc2ccc(-c3cnc(CN4CCCC4)n3C)cc2)C(=O)C[C@@H](Cc2ccccc2)C(=O)N(C)[C@@H](CCF)CNC(=O)C[C@H](Cc2ccc(Cl)cc2)N(C)C1=O [Compound 83, (2S,5S,8S,13S,16R)-16-benzyl-1-(4-chloro-2-(4-(1-methyl-2-(pyrrolidin-1-ylmethyl)-1H-imidazol-5-yl)phenoxy)benzyl)-8-(4-chlorobenzyl)-13-(2-fluoroethyl)-5-(methoxymethyl)-2,7,14-trimethyl-1,4,7,11,14-pentaazacyclooctadecane-3,6,10,15,18-pentaone]
87.74% | 497 nM | COC[C@@H]1NC(=O)[C@H](CCO)N(Cc2ccc(Cl)cc2Oc2ccc(-c3cnc(CN(C)C)n3C)cc2)C(=O)C[C@@H](Cc2ccccc2)C(=O)N(C)[C@@H](C)CNC(=O)C[C@H](Cc2ccc(Cl)cc2)N(C)C1=O [Compound 87, (2S,5S,8S,13S,16R)-16-benzyl-1-(4-chloro-2-(4-(2-((dimethylamino)methyl)-1-methyl-1H-imidazol-5-yl)phenoxy)benzyl)-8-(4-chlorobenzyl)-2-(2-hydroxyethyl)-5-(methoxymethyl)-7,13,14-trimethyl-1,4,7,11,14-pentaazacyclooctadecane-3,6,10,15,18-pentaone]
